This note sets out measurements from ChEMBL document CHEMBL6071200, “Discovery of Ring-Annulated Analogues of Cannabidiol as Potential Anticancer Agents: Synthesis and Biological Evaluation” (ACS Med Chem Lett, 2024).

Structures are written as SMILES. pIC50: −log10 of the molar value. Converted amounts (≈) assume the structure as drawn. The source made the active and inactive calls. The rule behind the calls is not given here.

One series deals with Raji. Nature of the series: Anticancer activity against human Raji cells. The series is classed as functional, cell-based.
The next series relates to Jurkat. The series is described as follows: Anticancer activity against human Jurkat cells. The series is classed as functional, cell-based.
Series [1] relates to HCT-116. Nature of the series: Cytotoxicity against human HCT-116 cells assessed as inhibition of cell growth at 20 uM incubated for 48 hrs by SRB assay relative to control. The series is classed as functional. Background: Sulforhodamine B stains cellular protein and so reports cell mass.
Series [2] concerns MCF7. Nature of the series: Cytotoxicity against human MCF7 cells assessed as inhibition of cell growth at 20 uM incubated for 48 hrs by SRB assay relative to control. The series is classed as functional.
Series [3] has as its system MCF7. The series is described as follows: Anticancer activity against human MCF7 cells assessed as effect on cell viability by SRB assay. The series is classed as functional, cell-based.
The subject of series [4] is HCT-116. The series is described as follows: Cytotoxicity against human HCT-116 cells assessed as inhibition of cell growth incubated for 48 hrs by SRB assay. The series is classed as functional, cell-based. The following applies: HCT-116, 48 h.
Series [5] deals with MCF7. Nature of the series: Cytotoxicity against human MCF7 cells assessed as inhibition of cell growth incubated for 48 hrs by SRB assay. The series is classed as functional, cell-based. The following applies: MCF7, 48 h.
Series [6] can be described thus: Cytotoxicity against human HEK293 cells assessed as inhibition of cell growth incubated for 48 hrs by SRB assay. The series is classed as toxicity, cell-based.
A short description of series [7]: Selectivity index, ratio of IC50 for HEK293 cells to IC50 for human HCT-116 cells. The series is classed as toxicity. Conditions: HEK293 cells versus HCT-116 cells, read-out: Ratio IC50.
Series [8] is described as follows: Selectivity index, ratio of IC50 for HEK293 cells to IC50 for human MCF7 cells. The series is classed as toxicity. The following applies: HEK293 cells versus MCF7 cells, read-out: Ratio IC50.
The nature of series [9]: Solubility of compound in water by UV absorbance based analysis. The series is classed as physicochemical.
The nature of series [10]: Solubility of compound in SGF by UV absorbance based analysis. The series is classed as physicochemical.
The nature of series [11]: Solubility of compound in SIF by UV absorbance based analysis. The series is classed as physicochemical.
The subject of series [12] is MCF7. Nature of the series: Anticancer activity against human MCF7 cells. The series is classed as functional, cell-based.
The test system of a further series is DU-145. Nature of the series: Anticancer activity against human DU-145 cells. The series is classed as functional, cell-based.
Series [13] in a line: Anticancer activity against mouse NIH3T3 cells. The series is classed as toxicity, cell-based.
Another series has as its system HT-29. Nature of the series: Anticancer activity against human HT-29 cells. The series is classed as functional, cell-based.
The next series concerns NCI-H226. Nature of the series: Anticancer activity against human NCI-H226 cells. The series is classed as functional, cell-based.
A further series deals with SNB-19. Nature of the series: Anticancer activity against human SNB-19 cells. The series is classed as functional, cell-based.

Usually pIC50 stands for the negative decadic logarithm of the IC50, by convention in mol/L. As to `CCCCCC1=CC(=O)C([C@@H]2C=C(C)CC[C@H]2C(C)C)=C(O)C1=O`, the pIC50 in the series on Raji and in the series with Jurkat was 6.81 each time.

Broadly, the inhibition is the share of the control response that was lost under treatment. On to `C=C(C)[C@@H]1CCC(C)=C[C@H]1c1c(O)cc(CCCCC)c2c1OCN(C1CCCCCC1)C2`, for which the inhibition at 20 µM was found to be 50.9% in the series with HCT-116 [1] and 74.8% in the series with MCF7 [2].

In the case of `Oc1cc2c(cc1O)CN(C(=S)NCCc1ccc(Cl)cc1)CCC2`, in the series with MCF7 [3], the outcome was inactive.

The term IC50 denotes the concentration needed to halve the response being measured. As to `C=C(C)[C@@H]1CCC(C)=C[C@H]1c1c(O)cc(CCCCC)c2c1OCN(CCC)C2`, the inhibition at 20 µM with HCT-116 [1] was 62.8%; in the series with MCF7 [2] it was 82.4%. In addition, the pIC50 is 5.14 in the series on HCT-116 [4] and 5.21 in the series with MCF7 [5]. Further, the IC50 at 48 h in series [6] is 21800 nM. Moreover, the values for the selectivity ratio in series [7] and in [8] were 2.9 and 3.5, respectively.

Consider `Cc1cc(C)c2nc(-c3ccccn3)cc(C(=O)Nc3ccc(S(=O)(=O)Nc4onc(C)c4C)cc3)c2c1`, for which the result in the series with MCF7 [3] was inactive.

On to `C=C(C)[C@@H]1CCC(C)=C[C@H]1c1c(O)cc(CCCCC)c2c1OCN(c1ccc(OC(F)(F)F)cc1)C2`, for which the inhibition at 20 µM in the series with HCT-116 [1] and in the series on MCF7 [2] was 0% throughout.

Take `C=C(C)[C@@H]1CCC(C)=C[C@H]1c1c2c(c(CCCCC)c3c1OCN(CCCC)C3)CN(CCCC)CO2`: the inhibition at 20 µM with HCT-116 [1] and with MCF7 [2] was 0% each time.

For `Cc1ccc(Cn2nc(C(=O)N[C@@H]3C(C)(C)[C@@H]4CC[C@@]3(C)C4)cc2-c2ccc(Cl)c(C)c2)cc1`, the result in the series with MCF7 [3] was inactive.

With `C=C(C)[C@@H]1CCC(C)=C[C@H]1c1c(O)cc(CCCCC)c2c1OCN(C1CC1)C2`, the inhibition at 20 µM is 51.7% in the series on HCT-116 [1] and 75.1% with MCF7 [2].

With `C=C(C)[C@@H]1CCC(C)=C[C@H]1c1c(O)cc(CCCCC)c2c1OCN(C)C2`, the inhibition at 20 µM with HCT-116 [1] is 56.3%; in the series with MCF7 [2], 85.3%. In addition, the pIC50 in the series with HCT-116 [4] is 4.93; in the series with MCF7 [5], 5.11. The 50% inhibitory concentration (IC50) at 48 h in series [6] worked out at 12400 nM. Moreover, the selectivity ratio in [7] was found to be 1.1; in series [8], 1.6.

The term solubility denotes the dissolved amount per volume that the medium holds. Low readings indicate a poorly soluble substance, high ones a readily soluble substance. As for `O=C(/C=C/C=C/c1ccc2c(c1)OCO2)N1CCCCC1` [PIPERINE], the solubility came to 40 µg/mL (≈ 140 µM) in series [9], 40 µg/mL (≈ 140 µM) in series [10] and 60 µg/mL (≈ 210 µM) in series [11].

In the case of `C=C(C)[C@@H]1CCC(C)=C[C@H]1C1=C(O)C(=O)C(CCCCC)=CC1=O`, the pIC50 (with MCF7 [12]; in the series with DU-145; in series [13]; in the series with Raji; with HT-29; in the series on Jurkat) was 6.35 each time. Besides, the pIC50 in the series on NCI-H226 and in the series with SNB-19 was 6.35 in each case.

On to `O=C(Nc1ccccc1)c1cc([N+](=O)[O-])ccc1Cl`, for which, in the series on MCF7 [3], the result was inactive.

With `C=C(C)[C@@H]1CCC(C)=C[C@H]1c1c(O)cc(CCCCC)c2c1OCN(c1ccc(C(C)C)cc1)C2`, the results for the inhibition at 20 µM in the series with HCT-116 [1] and with MCF7 [2] were 0% and 9.47%, respectively.

Regarding `C=C(C)[C@@H]1CCC(C)=C[C@H]1c1c(O)cc(CCCCC)c2c1OCN(c1ccccc1F)C2`, the inhibition at 20 µM was determined as 1.13% with HCT-116 [1] and 16.6% with MCF7 [2].

Turning to `C=C(C)[C@@H]1CCC(C)=C[C@H]1C1=C(OC)C(=O)C(CCCCC)=CC1=O`, the pIC50 (with MCF7 [12]; in the series with DU-145; in series [13]; with Raji; in the series with HT-29; in the series with Jurkat) was 6.35 throughout. The pIC50 in the series on NCI-H226 and in the series on SNB-19 was 6.35 in each case.

Turning to `C=C(C)[C@@H]1CCC(C)=C[C@H]1c1c(O)cc(CCCCC)c2c1OCN(CC)C2`, the results for the inhibition at 20 µM in the series on HCT-116 [1] and with MCF7 [2] were 57.2% and 84.3%, respectively. The values for the negative logarithm of the IC50 (pIC50) in the series on HCT-116 [4] and in the series with MCF7 [5] were 4.66 and 5.07, respectively. Moreover, the IC50 at 48 h in [6] was 16800 nM. The figures for the selectivity ratio in [7] and in series [8] were 0.7 and 1.9, respectively.

Consider `C=C(C)[C@@H]1CCC(C)=C[C@H]1c1c(O)cc(CCCCC)c2c1OCN(CCCN1CCOCC1)C2`, for which the inhibition at 20 µM in the series on HCT-116 [1] was determined as 58.5%; in the series with MCF7 [2], 76.8%. The negative-log IC50 (pIC50) with HCT-116 [4] was 4.92; in the series on MCF7 [5] it was 5.06. In addition, the IC50 at 48 h in series [6] amounted to 10600 nM. In addition, the selectivity ratio in series [7] is 0.8; in [8], 1.2.

Take `C=C(C)[C@@H]1CCC(C)=C[C@H]1C1=C(O)C(=O)C(CCCCC)=C(C)C1=O`: the negative logarithm of the IC50 (pIC50) (in the series on MCF7 [12]; in the series with DU-145; in series [13]; in the series on Raji; in the series with HT-29; in the series with Jurkat) was 6.35 in each case. Besides, the pIC50 with NCI-H226 and in the series with SNB-19 was 6.35 in each case.

Consider `C=C(C)[C@@H]1CCC(C)=C[C@H]1c1c(O)cc(CCCCC)c2c1OCN(CCCCCC)C2`, for which the inhibition at 20 µM with HCT-116 [1] is 70.9%; with MCF7 [2], 83%. Moreover, the negative logarithm of the IC50 (pIC50) is 4.70 in the series with HCT-116 [4] and 5.02 with MCF7 [5]. Besides, in [6], the IC50 at 48 h was 23500 nM. Also, the selectivity ratio came out at 1.1 in [7] and 2.4 in series [8].

As to `COc1ccc(-c2oc3cc(OC)ccc3c2C(=O)c2ccc(C#N)cc2)cc1`, the outcome in the series with MCF7 [3] was inactive.

Consider `C=C(C)[C@@H]1CCC(C)=C[C@H]1c1c(O)cc(CCCCC)c2c1OCN(c1ccccc1)C2`, for which the results for the inhibition at 20 µM with HCT-116 [1] and with MCF7 [2] were 4.09% and 5.3%, respectively.

For the compound `C=C(C)[C@@H]1CCC(C)=C[C@H]1c1c(O)cc(CCCCC)c2c1OCN(Cc1ccccc1)C2`, the inhibition at 20 µM worked out at 52.3% with HCT-116 [1] and 46.5% in the series on MCF7 [2].

As to `C=C(C)[C@@H]1CCC(C)=C[C@H]1c1c(O)cc(CCCCC)c2c1OCN(c1cnc3ccccc3c1)C2`, the figures for the inhibition at 20 µM with HCT-116 [1] and in the series on MCF7 [2] were 18% and 0%, respectively.
